From ChEMBL document CHEMBL1201862, “PubChem BioAssay data set” (2004)
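Dose response: 5 concentrations. Exposure: 48 h. Format: 96-well plates. Endpoint: linear interpolation; highest concentration if not reached. The concentration for 50% growth inhibition is given as GI50.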 Calls of active or inactive are those of the source. Cut-off read from the data, not from the text of the source: active = GI50 up to about 1.1 µM and inactive = higher.

Columns and labels:
Assay in all cases: NCI anticancer screen, dose series, 48 h
NCI-H23 = tested on: NCI-H23
OVCAR-4 = tested on: OVCAR-4
MCF7 = tested on: MCF7
DU-145 = tested on: DU-145
UACC-257 = tested on: UACC-257
IGROV-1 = tested on: IGROV-1
MOLT-4 = tested on: MOLT-4
NCI-H460 = tested on: NCI-H460
SK-MEL-2 = tested on: SK-MEL-2
SN12C = tested on: SN12C
MDA-MB-435 = tested on: MDA-MB-435
SK-MEL-28 = tested on: SK-MEL-28
CCRF-CEM = tested on: CCRF-CEM
BT-549 = tested on: BT-549
OVCAR-5 = tested on: OVCAR-5
M14 = tested on: M14
HL-60 = tested on: HL-60
A498 = tested on: A498
MDA-MB-231 = tested on: MDA-MB-231
A549 = tested on: A549

SMILES	GI50 (NCI-H23)	GI50 (OVCAR-4)	GI50 (MCF7)	GI50 (DU-145)	GI50 (UACC-257)	GI50 (IGROV-1)	GI50 (MOLT-4)	GI50 (NCI-H460)	GI50 (SK-MEL-2)	GI50 (SN12C)	GI50 (MDA-MB-435)	GI50 (SK-MEL-28)	GI50 (CCRF-CEM)	GI50 (BT-549)	GI50 (OVCAR-5)	GI50 (M14)	GI50 (HL-60)	GI50 (A498)	GI50 (MDA-MB-231)	GI50 (A549)
Cc1ccc(/N=N/N(C)C(=O)C(C)N)cc1 (stereo not given)	> 100 µM (inactive)	> 100 µM (inactive)	> 100 µM (inactive)	> 100 µM (inactive)	> 100 µM (inactive)	> 100 µM (inactive)	> 100 µM (inactive)	> 100 µM (inactive)	> 100 µM (inactive)	> 100 µM (inactive)	> 100 µM (inactive)	> 100 µM (inactive)	> 100 µM (inactive)	> 100 µM (inactive)	> 100 µM (inactive)	> 100 µM (inactive)	> 100 µM (inactive)			
O=c1o[nH]/c(=N/c2ccccc2)n1-c1ccccc1	> 100 µM (inactive)	> 100 µM (inactive)	> 100 µM (inactive)		> 100 µM (inactive)	> 100 µM (inactive)	> 100 µM (inactive)	> 100 µM (inactive)	> 100 µM (inactive)	> 100 µM (inactive)		> 100 µM (inactive)	> 100 µM (inactive)	> 100 µM (inactive)	> 100 µM (inactive)	> 100 µM (inactive)	> 100 µM (inactive)	> 100 µM (inactive)	> 100 µM (inactive)	> 100 µM (inactive)
CCCN(CCC)C(=S)N/N=C/c1cccc(C)n1	0.275 µM (active)	< 0.01 µM (active)	< 0.01 µM (active)	0.321 µM (active)	< 0.01 µM (active)	0.0733 µM (active)	< 0.01 µM (active)	0.159 µM (active)	0.594 µM (active)	0.122 µM (active)	0.521 µM (active)	0.778 µM (active)	< 0.01 µM (active)		< 0.01 µM (active)	< 0.01 µM (active)	< 0.01 µM (active)	0.233 µM (active)	< 0.01 µM (active)	0.108 µM (active)
O=C(CN(C(=O)OC12CC3CC(CC(C3)C1)C2)C(=O)OC12CC3CC(CC(C3)C1)C2)Oc1ccc([N+](=O)[O-])cc1	93.8 µM (inactive)	> 100 µM (inactive)	> 100 µM (inactive)		> 100 µM (inactive)	> 100 µM (inactive)	4.2 µM (inactive)	> 100 µM (inactive)		86.3 µM (inactive)	45.3 µM (inactive)	> 100 µM (inactive)	30.5 µM (inactive)	> 100 µM (inactive)	> 100 µM (inactive)	> 100 µM (inactive)			76.2 µM (inactive)	> 100 µM (inactive)
O=C(c1ccc(Cl)cc1Cl)N(C(=O)N1CCC(c2ccccc2)CC1)c1ccccc1	> 100 µM (inactive)		72.4 µM (inactive)	> 100 µM (inactive)	63.8 µM (inactive)	92.9 µM (inactive)	17.8 µM (inactive)	> 100 µM (inactive)	> 100 µM (inactive)	> 100 µM (inactive)	55 µM (inactive)	> 100 µM (inactive)	13.8 µM (inactive)	> 100 µM (inactive)	> 100 µM (inactive)	> 100 µM (inactive)		97.7 µM (inactive)		> 100 µM (inactive)
CC1(C)C(OC(=O)c2ccccc2)C[C@]23CCC[C@](C)(C[C@@H](O)C12)C3 (stereo not given in full)	16.9 µM (inactive)	23.1 µM (inactive)	16.4 µM (inactive)	21.2 µM (inactive)	20.4 µM (inactive)	20.2 µM (inactive)	10.5 µM (inactive)	16.2 µM (inactive)	17.6 µM (inactive)	18.4 µM (inactive)	18 µM (inactive)	15.8 µM (inactive)	11.7 µM (inactive)	15.6 µM (inactive)	15.3 µM (inactive)	19.9 µM (inactive)	31.5 µM (inactive)			16.3 µM (inactive)
